{"source": "patent US11925653B2", "about": "“Combination therapy effective against microorganisms, including drug resistant microorganisms” (Fleurir ABX LLC, priority 2021, dated 2024)", "assay_type_in_all_cases": "cell-based", "key": {"[1]": {"system": "Enterococcus faecalis", "test": "MIC and synergy checkerboard assay, broth microdilution"}, "[2]": {"system": "Escherichia coli", "test": "MIC and synergy checkerboard assay, agar dilution", "protocol": "(§1) The described novel combination was tested against both reference, and clinically resistant strains of S. aureus, E, coli, K. pneumoniae, and P. aeruginosa. Reference and clinical isolates were obtained from the American Type Culture Collection (ATCC, Manasas, VA.) and International Health Management Associates, Inc. (Schaumberg, IL). Bacteria were cultured in trypticase soy broth, concentrated 10-fold by centrifugation, and cryopreserved in the same medium containing 20% glycerol by holding at −80° C. Every two weeks a small amount of frozen culture was removed aseptically, and streaked on fresh trypticase soy agar plates to act as a working inoculum. Following overnight growth at about 37° C., the plates were wrapped in parafilm, and held at about 4° C. Bacteria (4-5 colonies) were then aseptically transferred into broth growth medium for assays as needed.\n(§2) Minimum inhibitory concentration (MIC) assays were performed in a manner as described for the CLSI Agar dilution or broth microdilution assay guideline (see, Clinical Laboratory Standards Institute, 2009, Methods for Dilution Antimicrobial Susceptibility Tests for Bacteria That Grow Aerobically; Approved Standard, Eighth Edition, M07-A8, Vol. 29, No. 2). For example, known antibiotics or the compositions described herein were dissolved, serially diluted, and then added to tempered molten Mueller-Hinton Agar before pouring of plates; or were dissolved, and then serially diluted in 100 μL cation-adjusted Mueller-Hinton broth across the assay plate in the classical 2-fold geometric format. D-glucose-6-phosphate was included as a medium supplement in both agar, and broth at a concentration of 50 mg/L. Antibiotic concentrations for agar assay were at the final concentration. Antibiotic concentrations for broth microdilution in each well at this point were double what the final assay concentration would be. Bacterial inocula were prepared by swabbing several colonies from a fresh agar plate, and re-suspending the bacteria to a density that was the 0.5 McFarland turbidity standard, considered close or equivalent to 1×10^8 CFU/mL. For agar dilution, a steers replicator was utilized to deliver 1×10^4 CFU/spot. For broth microdilution, the bacterial inocula were diluted in the cation-adjusted Mueller-Hinton broth to 1×10^6 CFU/mL, and 100 μL was overlayered onto the wells containing a diluted antibiotic or a composition described. Following incubation as per the guideline, results were recorded as growth or no growth, and the lowest concentration of the antibiotic or the composition described where no growth was observed was declared the MIC.\n(§3) To assay for synergy of antibacterial combinations, a recognized synergy checkerboard assay, adapted from the CLSI guideline microdilution assay, was utilized (see Eliopoulos, G. M., and Moellering, R. C, Jr., 1996. Antimicrobial Combinations, pg. 330-396. In: Lorian, V. (Ed.), Antibiotics in Laboratory Medicine, 4th Ed., Williams & Wilkins; Baltimore, MD). In the case of the agar dilution method, each antibiotic alone, or in combination was added to agar prior to plate pouring. For broth microdilution, the first compound (or antibiotic or agent) was diluted in cation-adjusted Mueller-Hinton broth across the plate along the horizontal axis with each well in a row containing 50 μL of an identical concentration of compound (or antibiotic). Along the vertical axis a dilution series of the second compound (or antibiotic) was dispensed. At this point the drug concentrations are four-fold of the final desired working concentration. […] Following incubation, wells with no growth are noted. […] FIC=(MIC-A combination/MIC-A alone)+(MIC-B combination/MIC-B alone).\n(§4) In the above, FIC: Synergy=FIC<0.5; Additive=FIC>0.5-1; Indifferent=FIC>1-2; Antagonism=FIC>2-4."}, "[3]": {"system": "K. pneumonia", "test": "MIC and synergy checkerboard assay, agar dilution", "protocol": "as §1, §2, §3, §4"}, "[4]": {"system": "bacteria", "test": "spontaneous mutational frequency (SMF; resistance)", "conditions": "resistant colonies observed divided by total inoculum; plates with 4-fold MIC of the combination or 2-fold MIC of each antibiotic alone", "protocol": "MIC was further evaluated to confirm resistance, and the spontaneous mutational frequency was calculated based on the following equation: […]\nThe spontaneous mutational frequency (SMF; resistance) was calculated as the number of resistant colonies observed divided by the total inoculum."}}, "note": "Marks after values point to notes of the source that are not given here.", "data": [{"molecule": "C[C@@H]1O[C@@H]1P(=O)(O)O", "note": "[Fosfomycin, cis-1,2-epoxypropyl phosphonic acid]", "values": [{"measurement": "MIC (Combo as F/DP/SM; second compound as DP/SM)", "setting": "[1]; E. faecalis 1082155", "result": 32, "unit": "µg/mL"}, {"measurement": "MIC (Combo as F/DP/SM; second compound as DP/SM)", "setting": "[1]; E. faecalis 1120278", "result": 64, "unit": "µg/mL"}, {"measurement": "MIC (Combo as F/DP/SM; second compound as DP/SM)", "setting": "[1]; E. faecalis 1129099", "result": 4, "unit": "µg/mL"}, {"measurement": "MIC (Combo as F/DP/SM; second compound as DP/SM)", "setting": "[1]; E. faecalis 1175598", "result": 32, "unit": "µg/mL"}, {"measurement": "MIC (Combo as F/DP/SM; second compound as DP/SM)", "setting": "[1]; E. faecalis 10864321", "result": 32, "unit": "µg/mL"}, {"measurement": "MIC (Combo as F/DP/SM; second compound as DP/SM)", "setting": "[1]; Enterococcus faecalis (ATCC 29212)", "result": 64, "unit": "µg/mL"}, {"measurement": "MIC (Combo as F/DP/SM; second compound as DP/SM)", "setting": "[1]; Enterococcus faecalis (MGH-01) (VanA)", "result": "256* μg/ml"}, {"measurement": "MIC (Combo as F/DP/SM; second compound as DP/SM)", "setting": "[1]; Enterococcus faecalis (MGH-06)", "result": "128* μg/ml"}, {"measurement": "MIC (Combo as F/DP/SM; second compound as DP/SM)", "setting": "[2]; Escherichia coli 846439", "result": 64, "unit": "µg/mL"}, {"measurement": "MIC (Combo as F/DP/SM; second compound as DP/SM)", "setting": "[2]; Escherichia coli 846446", "result": 4, "unit": "µg/mL"}, {"measurement": "MIC (Combo as F/DP/SM; second compound as DP/SM)", "setting": "[2]; Escherichia coli 846450", "result": 32, "unit": "µg/mL"}, {"measurement": "MIC (Combo as F/DP/SM; second compound as DP/SM)", "setting": "[2]; Escherichia coli 846455", "result": "128* μg/ml"}, {"measurement": "MIC (Combo as F/DP/SM; second compound as DP/SM)", "setting": "[2]; Escherichia coli 847149", "result": "128* μg/ml"}, {"measurement": "MIC (Combo as F/DP/SM; second compound as DP/SM)", "setting": "[2]; Escherichia coli 854535", "result": "128* μg/ml"}, {"measurement": "MIC (Combo as F/DP/SM; second compound as DP/SM)", "setting": "[2]; Escherichia coli 854566", "result": "128* μg/ml"}, {"measurement": "MIC (Combo as F/DP/SM; second compound as DP/SM)", "setting": "[2]; Escherichia coli 857021", "result": 64, "unit": "µg/mL"}, {"measurement": "MIC (Combo as F/DP/SM; second compound as DP/SM)", "setting": "[2]; Escherichia coli 863078", "result": "128* μg/ml"}, {"measurement": "MIC (Combo as F/DP/SM; second compound as DP/SM)", "setting": "[2]; Escherichia coli 863686", "result": 64, "unit": "µg/mL"}, {"measurement": "MIC (Combo as F/DP/SM; second compound as DP/SM)", "setting": "[2]; Escherichia coli ATCC 25922", "result": 16, "unit": "µg/mL"}, {"measurement": "MIC (Combo as F/DP/SM; second compound as DP/SM)", "setting": "[3]; K. pneumonia 848788", "result": "256* μg/ml"}, {"measurement": "MIC (Combo as F/DP/SM; second compound as DP/SM)", "setting": "[3]; K. pneumonia 857147", "result": 32, "unit": "µg/mL"}, {"measurement": "MIC (Combo as F/DP/SM; second compound as DP/SM)", "setting": "[3]; K. pneumonia 857187", "result": "128* μg/ml"}, {"measurement": "MIC (Combo as F/DP/SM; second compound as DP/SM)", "setting": "[3]; K. pneumonia 868968", "result": "256* μg/ml"}, {"measurement": "MIC (Combo as F/DP/SM; second compound as DP/SM)", "setting": "[3]; K. pneumonia 868972", "result": "128* μg/ml"}, {"measurement": "MIC (Combo as F/DP/SM; second compound as DP/SM)", "setting": "[3]; K. pneumonia 869028", "result": "256* μg/ml"}, {"measurement": "MIC (Combo as F/DP/SM; second compound as DP/SM)", "setting": "[3]; K. pneumonia 870964", "result": "256* μg/ml"}, {"measurement": "MIC (Combo as F/DP/SM; second compound as DP/SM)", "setting": "[3]; K. pneumonia 875638", "result": 64, "unit": "µg/mL"}, {"measurement": "MIC (Combo as F/DP/SM; second compound as DP/SM)", "setting": "[3]; K. pneumonia 892483", "result": "256* μg/ml"}, {"measurement": "MIC (Combo as F/DP/SM; second compound as DP/SM)", "setting": "[3]; K. pneumonia 926439", "result": "128* μg/ml"}, {"measurement": "frequency of spontaneous mutants resistant (spontaneous mutational frequency, SMF)", "setting": "[4]", "result": "6.33×10^−6"}]}]}
